# PMC9845330 (Communications Biology, 2023)
# Non-standard residues stand in square brackets, D forms with d. Residues, ends and D or L forms follow the SMILES beside them. *: point of attachment. X1 = O=C(CCCC[C@@H]1SC[C@@H]2NC(=O)N[C@@H]21)NCCCOCCOCCOCCCN*; PEG12 = NCCOCCOCCOCCOCCOCCOCCOCCOCCOCCOCCOCCOCCC(=O)O
# Tests used:
# Assay in all cases: Cell internalization by flow cytometry, absolute uptake (molecules per cell)
# Format in all cases: cell-based, human
# Conditions in all cases: for Molecules Internalized Per Cell: Average
# H1993 cells = test system: H1993 cells
# From the text: (§1) Optimizing MGS4 as a monomer is efficient but the optimal valency of the truncated peptide may be different than that of the full-length peptide. The peptide was synthesized as a monomer (MGS4_V8), dimer (MGS4_V9), and tetramer (MGS4_V10). To obtain quantitative data, we moved from measuring the relative fluorescence of dye-labeled peptide to the determination of the average number of dye molecules internalized per cell. […] The dimer MGS4_V9 has an EC50 7-fold lower indicating there is a synergistic effect in going from a monomer to a dimer (Fig. 2a and Table 2). However, there is only a 2-fold decrease in going from a dimer to a tetrameric peptide (MGS4_V10). We also calculated the EC50 on three other NSCLC cell lines (Table 2 and Supplementary Figure 3). […] The average number of peptides internalized per cell at saturating conditions varies, with H1993 cells internalizing the highest number of peptides at all three valencies (Table 2). This is likely due to differing levels of receptor expression on the cell type. The average molecules internalized at 50 nM in one hour follows the same trend (Fig. 2b).
# (§2) Biotinylated peptide was conjugated to streptavidin-R-phycoerythrin or streptavidin-Alexa Fluor 647 (1:1 molar ratio) for 30 min. The open binding sites on streptavidin were quenched with RPMI 1640 and diluted to the indicated concentration. Tumor cells were grown to 90% confluency in a 12 well plate, then incubated with 500 µl peptide-dye conjugate at 37 °C. After 1 h, peptide was removed, and the cells were washed 3x with PBS (137 mM NaCl, 2.7 mM KCl, 10 mM Na2HPO4, 1.8 mM KH2PO4, pH 7.4), 2x with 0.1 M HCl-glycine pH2.2 in 0.9% NaCl, and 1x PBS rinse. Cells were removed by trypsinization. Flow cytometry was performed on a BD FACSCelesta, and data were analyzed on Flowing software. Cells were gated based on the forward and side scatter to include only viable cells and a minimum of 10,000 events were counted. A region containing <5% of the cells in the negative control was established, and relative peptide uptake by the mean fluorescence intensity of that population. For absolute peptide uptake per cell, a standard curve was generated using Quantum™ Alexa Fluor 647 microspheres (Bangs Laboratory, Fishers, IN). A representative linear regression showing the correlation of molecule equivalents soluble fluorophores (MESF) vs the mean fluorescence intensity (MFI) is shown in Supplemental Figure 6. Cells were gated based on the forward and side scatter to include only viable cells and a minimum of 10,000 events were counted. MFI was determined at 50% at peak height. Molecules internalized per cell were determined by the standard curve relating MESF to MFI and divided by the number dye molecules/MGS conjugate. An example is shown in supplemental Figure 7. GraphPad Prism® was used for non-linear regression curve fitting to calculate an EC50. Parameters and statistical analysis are provided (Supplementary Tables 2–6). Experiments were repeated a minimum of three times.
# (§3) For all EC50 determinations, each peptide variant was tested on the indicated cell line with a minimum of 3 biological replicates and analyzed individually by flow cytometry. The standard error measurement for each concentration is indicated by error bars in the figures. For experiments in which absolute number of molecules internalized was measured at different concentrations, EC50 were determined by GraphPad Prism® using nonlinear regression curve fitting for log(agonist) vs. response–Variable slope (four parameters). For the truncation experiments, EC50 were determined using one-site-specific binding. Similarly, IC50s were calculated using GraphPad Prism® using log(agonist) vs. response–Variable slope (four parameters). A minimum of four biological replicates were performed for each variant and cell line. Data for individual experiments are included in supplementary files. Parameters and statistical analysis are provided in Supplementary Tables 2–7. […]
# H2009 cells = test system: H2009 cells
# From the text: as §1, §2, §3
# H358 cells = test system: H358 cells
# From the text: as §1, §2, §3
smiles,measurement,setting,value
CC(=O)N[C@@H](Cc1ccccc1)C(=O)N[C@@H](Cc1c[nH]cn1)C(=O)N[C@@H](C)C(=O)N[C@H](C(=O)N1CCC[C@H]1C(=O)N[C@@H](CCC(N)=O)C(=O)N[C@@H](CO)C(=O)N[C@@H](Cc1ccccc1)C(=O)N[C@@H](Cc1ccc(O)cc1)C(=O)N[C@H](C(=O)NCCOCCOCCOCCOCCOCCOCCOCCOCCOCCOCCOCCOCCC(=O)N[C@@H](CCC(=O)NCCCOCCOCCOCCCNC(=O)CCCC[C@@H]1SC[C@@H]2NC(=O)N[C@@H]21)C(N)=O)[C@@H](C)O)C(C)C [MGS4_V8] (Ac-FHAVPQSFYT[PEG12]E(X1)-NH2),Molecules Internalized Per Cell,H1993 cells; 0.01 nM,0
same,Molecules Internalized Per Cell,H1993 cells; 1 nM,57
same,Molecules Internalized Per Cell,H1993 cells; 10 nM,3584
same,Molecules Internalized Per Cell,H1993 cells; 20 nM,36850
same,Molecules Internalized Per Cell,H1993 cells; 30 nM,42262
same,Molecules Internalized Per Cell,H1993 cells; 40 nM,55296
same,Molecules Internalized Per Cell,H1993 cells; 50 nM,88510
same,Molecules Internalized Per Cell,H1993 cells; 60 nM,76327
same,Saturation (molecules),H1993 cells; H1993 Cells,"119,000 ± 57,500 molecules"
same,HillSlope,H1993 cells; Supplementary Table 6,1.706
same,LogIC50,H1993 cells; Supplementary Table 6,-7.427
same,Top,H1993 cells; Supplementary Table 6,118643
same,Molecules Internalized Per Cell,H2009 cells; 1 nM,0
same,Molecules Internalized Per Cell,H2009 cells; 10 nM,1006
same,Molecules Internalized Per Cell,H2009 cells; 20 nM,3516
same,Molecules Internalized Per Cell,H2009 cells; 30 nM,15550
same,Molecules Internalized Per Cell,H2009 cells; 40 nM,22008
same,Molecules Internalized Per Cell,H2009 cells; 50 nM,28764
same,Molecules Internalized Per Cell,H2009 cells; 60 nM,30384
same,Molecules Internalized Per Cell,H2009 cells; 80 nM,38906
same,Saturation (molecules),H2009 cells; H2009 Cells,"40,600 ± 2630 molecules"
same,HillSlope,H2009 cells; Supplementary Table 4,3.175
same,LogIC50,H2009 cells; Supplementary Table 4,-7.424
same,Top,H2009 cells; Supplementary Table 4,40633
same,Molecules Internalized Per Cell,H358 cells; 0.01 nM,0
same,Molecules Internalized Per Cell,H358 cells; 0.1 nM,11
same,Molecules Internalized Per Cell,H358 cells; 1 nM,140
same,Molecules Internalized Per Cell,H358 cells; 5 nM,2481
same,Molecules Internalized Per Cell,H358 cells; 10 nM,4840
same,Molecules Internalized Per Cell,H358 cells; 20 nM,25103
same,Molecules Internalized Per Cell,H358 cells; 30 nM,36064
same,Molecules Internalized Per Cell,H358 cells; 40 nM,47392
same,Molecules Internalized Per Cell,H358 cells; 50 nM,58761
same,Molecules Internalized Per Cell,H358 cells; 60 nM,66918
same,Molecules Internalized Per Cell,H358 cells; 80 nM,68326
same,Saturation (molecules),H358 cells; H358 Cells,"85,500 ± 39600 molecules"
same,HillSlope,H358 cells; Supplementary Table 5,1.829
same,LogIC50,H358 cells; Supplementary Table 5,-7.470
same,Top,H358 cells; Supplementary Table 5,85477
